The source of these data is ChEMBL document CHEMBL1743341, “Cytochrome p450 enzymes mechanism based inhibitors: common sub-structures and reactivity” (Curr Drug Metab, 2005).

One data set addresses T1, CYP2B6 (Homo sapiens, UniProt P20813).
T1 sequence (P20813 whole entry): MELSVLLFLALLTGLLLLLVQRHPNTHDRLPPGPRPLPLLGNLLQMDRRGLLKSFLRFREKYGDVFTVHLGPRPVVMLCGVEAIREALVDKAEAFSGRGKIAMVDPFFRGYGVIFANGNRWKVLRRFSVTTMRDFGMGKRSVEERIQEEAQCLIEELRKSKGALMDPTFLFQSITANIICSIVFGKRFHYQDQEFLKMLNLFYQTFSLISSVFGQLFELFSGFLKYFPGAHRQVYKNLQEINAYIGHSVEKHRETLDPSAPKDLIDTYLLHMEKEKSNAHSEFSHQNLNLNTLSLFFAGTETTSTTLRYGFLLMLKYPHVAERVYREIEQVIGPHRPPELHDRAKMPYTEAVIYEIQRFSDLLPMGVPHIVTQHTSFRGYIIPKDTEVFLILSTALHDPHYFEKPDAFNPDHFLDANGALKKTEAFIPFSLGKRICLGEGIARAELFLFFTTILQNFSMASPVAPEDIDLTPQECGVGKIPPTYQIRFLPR
Nature of the data set: (§1) Mechanism based inhibition of human cytochrome P450 2B6 measured by N-(3,5-dichloro-4-pyridyl)-3- (cyclopentoxy)-4- methoxybenzamide (DCMB) hydroxylase activity. Format: ADME. Particulars: human.

The target of a further data set is T2, Cytochrome P450 2B6 (Homo sapiens, UniProt P20813).
T2 sequence (P20813 whole entry): T1 sequence (P20813 whole entry)
Described as §1. Type of data set: ADME.

In another data set the target is CYP3A4 (Homo sapiens, UniProt P08684). Nature of the data set: (§2) Mechanism based inhibition of human cytochrome P450 3A4 measured by nifedipine oxidation, omeprazole 3-hydroxylation and omeprazole sulfoxydation. Format: ADME. Particulars: human.
Data set [1] concerns the target T3, Cytochrome P450 3A4 (Homo sapiens, UniProt P08684). The data set is described as §2. Format: ADME.
Data set [2] addresses T3, Cytochrome P450 3A4. In words: Mechanism based inhibition of human cytochrome P450 3A4 measured by testosterone 6-beta hydroxylation. Type of data set: ADME.
The target of data set [3] is T4, Cytochrome P450 2B1 (Rattus norvegicus, UniProt P00176).
T4 sequence (P00176 whole entry): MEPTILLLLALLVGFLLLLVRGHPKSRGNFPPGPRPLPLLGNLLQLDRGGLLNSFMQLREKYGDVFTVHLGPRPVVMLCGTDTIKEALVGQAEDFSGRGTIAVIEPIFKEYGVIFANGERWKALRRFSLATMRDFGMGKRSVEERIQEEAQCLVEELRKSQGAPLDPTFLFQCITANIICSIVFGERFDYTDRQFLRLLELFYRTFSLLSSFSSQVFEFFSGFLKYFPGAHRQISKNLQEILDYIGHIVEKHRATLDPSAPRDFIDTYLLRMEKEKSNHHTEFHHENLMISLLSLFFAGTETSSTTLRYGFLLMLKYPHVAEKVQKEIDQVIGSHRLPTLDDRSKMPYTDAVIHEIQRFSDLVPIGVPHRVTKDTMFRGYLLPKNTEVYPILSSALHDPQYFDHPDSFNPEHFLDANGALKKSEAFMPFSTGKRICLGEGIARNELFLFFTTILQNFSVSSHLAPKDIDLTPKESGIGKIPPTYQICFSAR
In words: Mechanism based inhibition of rat cytochrome P450 CYP2B1 measured by androstenedione 16-beta-hydroxylation and R- and S- warfarin hydroxylation. Format: ADME.

The target in a further data set is T5, CYP2B4 (Oryctolagus cuniculus, UniProt P00178).
T5 sequence (P00178 whole entry): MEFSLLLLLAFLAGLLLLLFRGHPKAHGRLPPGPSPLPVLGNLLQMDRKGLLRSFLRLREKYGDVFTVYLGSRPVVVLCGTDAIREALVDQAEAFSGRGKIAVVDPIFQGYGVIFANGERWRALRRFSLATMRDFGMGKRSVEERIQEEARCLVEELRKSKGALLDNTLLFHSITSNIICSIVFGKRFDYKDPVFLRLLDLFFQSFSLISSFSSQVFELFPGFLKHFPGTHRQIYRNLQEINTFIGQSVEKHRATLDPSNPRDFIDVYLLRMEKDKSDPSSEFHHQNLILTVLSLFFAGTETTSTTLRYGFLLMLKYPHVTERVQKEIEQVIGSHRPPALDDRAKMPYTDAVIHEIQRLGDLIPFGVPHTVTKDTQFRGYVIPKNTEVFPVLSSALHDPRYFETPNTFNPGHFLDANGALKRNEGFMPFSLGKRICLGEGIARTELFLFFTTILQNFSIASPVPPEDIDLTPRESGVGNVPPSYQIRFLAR
In words: (§3) Mechanism based inhibition of rabbit cytochrome P450 CYP2B4 measured by 7-EFC O-deethylation activity. Type of data set: ADME. The settings on record: rabbit, probe 7-EFC (O-deethylation).

Data set [4] addresses T6, Cytochrome P450 2B4 (Oryctolagus cuniculus, UniProt P00178).
T6 sequence (P00178 whole entry): T5 sequence (P00178 whole entry)
Described as §3. Type of data set: ADME.

Data set [5] addresses Cytochrome P450 2E1 (Oryctolagus cuniculus) (UniProt P08682). Nature of the data set: Mechanism based inhibition of rabbit cytochrome P450 CYP2E1 measured by 7-EFC O-deethylation activity. The settings on record: probe 7-EFC (O-deethylation).
The target in data set [6] is T4, Cytochrome P450 2B1. Nature of the data set: Mechanism based inhibition of rat cytochrome P450 CYP2B1 partition ratio. Format: ADME.
For another data set, the target named is T7, CYP1A2 (Rattus norvegicus, UniProt P04799).
T7 sequence (P04799 whole entry): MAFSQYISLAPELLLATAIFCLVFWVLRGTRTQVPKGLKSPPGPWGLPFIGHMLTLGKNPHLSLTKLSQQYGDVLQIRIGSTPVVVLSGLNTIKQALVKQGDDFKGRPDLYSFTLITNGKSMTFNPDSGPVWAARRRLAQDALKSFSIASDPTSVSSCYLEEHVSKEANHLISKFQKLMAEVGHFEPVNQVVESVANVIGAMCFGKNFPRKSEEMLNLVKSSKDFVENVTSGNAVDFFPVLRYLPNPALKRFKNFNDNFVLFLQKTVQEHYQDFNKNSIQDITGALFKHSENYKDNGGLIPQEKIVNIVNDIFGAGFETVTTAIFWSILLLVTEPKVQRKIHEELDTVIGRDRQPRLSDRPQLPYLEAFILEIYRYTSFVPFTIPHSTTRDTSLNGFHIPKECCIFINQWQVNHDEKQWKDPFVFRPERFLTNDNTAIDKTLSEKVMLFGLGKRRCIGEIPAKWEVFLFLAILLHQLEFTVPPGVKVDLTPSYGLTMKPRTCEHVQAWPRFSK
Nature of the data set: (§4) Mechanism based inhibition of rat cytochrome P450 CYP1A2 measured by 7-methoxyresorufin O-demethylation (MROD). The settings on record: rat, probe 7-methoxyresorufin (O-demethylation, MROD). Type of data set: ADME.

In the next data set the target is T8, Cytochrome P450 1A2 (Rattus norvegicus, UniProt P04799).
T8 sequence (P04799 whole entry): T7 sequence (P04799 whole entry)
The description is as §4. Format: ADME.

Another data set concerns the target T9, CYP2B1 (Rattus norvegicus, UniProt P00176).
T9 sequence (P00176 whole entry): T4 sequence (P00176 whole entry)
In words: (§5) Mechanism based inhibition of rat cytochrome P450 CYP2B1 measured by 7-pentoxyresorufin […] activity (PROD). Format: ADME. The settings on record: rat, probe 7-pentoxyresorufin ([…], PROD).

The target in data set [7] is T4, Cytochrome P450 2B1. The data set is described as §5. Format: ADME.
Data set [8] deals with T6, Cytochrome P450 2B4. In words: Mechanism based inhibition of rabbit cytochrome P450 CYP2B4 partition ratio. Type of data set: ADME.

T3 sequence (P08684 whole entry): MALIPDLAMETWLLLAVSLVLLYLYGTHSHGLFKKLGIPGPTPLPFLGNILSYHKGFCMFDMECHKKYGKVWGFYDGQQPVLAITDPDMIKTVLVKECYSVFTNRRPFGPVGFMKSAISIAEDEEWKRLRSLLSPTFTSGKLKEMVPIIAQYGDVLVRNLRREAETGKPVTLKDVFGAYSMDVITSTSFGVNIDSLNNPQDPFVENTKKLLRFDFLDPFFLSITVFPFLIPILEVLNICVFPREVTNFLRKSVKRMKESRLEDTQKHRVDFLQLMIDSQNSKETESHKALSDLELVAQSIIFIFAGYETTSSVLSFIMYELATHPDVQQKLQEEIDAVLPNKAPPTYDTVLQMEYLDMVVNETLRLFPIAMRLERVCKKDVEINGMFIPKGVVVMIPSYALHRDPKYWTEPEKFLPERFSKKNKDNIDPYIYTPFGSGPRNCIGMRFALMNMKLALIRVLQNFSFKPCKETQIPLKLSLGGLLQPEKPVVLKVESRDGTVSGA
Sequence of Cytochrome P450 2E1 (Oryctolagus cuniculus) (P08682 whole entry, looked up): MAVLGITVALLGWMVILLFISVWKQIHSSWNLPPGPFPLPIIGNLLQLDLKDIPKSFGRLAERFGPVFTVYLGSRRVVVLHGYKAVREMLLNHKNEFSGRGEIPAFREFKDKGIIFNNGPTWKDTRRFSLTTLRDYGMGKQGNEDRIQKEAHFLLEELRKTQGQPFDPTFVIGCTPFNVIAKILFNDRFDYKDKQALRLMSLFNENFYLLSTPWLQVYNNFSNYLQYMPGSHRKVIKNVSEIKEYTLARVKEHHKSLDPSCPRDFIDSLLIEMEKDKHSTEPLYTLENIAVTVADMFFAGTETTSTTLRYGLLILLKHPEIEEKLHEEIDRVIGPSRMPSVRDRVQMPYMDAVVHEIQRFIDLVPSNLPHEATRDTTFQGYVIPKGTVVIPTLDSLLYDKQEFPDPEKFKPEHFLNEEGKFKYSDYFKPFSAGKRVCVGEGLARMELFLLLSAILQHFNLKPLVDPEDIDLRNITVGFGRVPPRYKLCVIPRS
Sequence of CYP3A4 (P08684 whole entry): as the sequence (P08684 whole entry) above

Consider `C#CCOc1cc(C(=O)Nc2c(Cl)cncc2Cl)ccc1OC`, for which the kinact on CYP2B6 was 0.0015 s⁻¹. This compound gave a Ki on Cytochrome P450 2B6 of 5100 nM.

`C=C(C)C(CC/C(C)=C/COc1c2ccoc2cc2oc(=O)ccc12)OC(C)(C)C(O)CC/C(C)=C/COc1c2ccoc2cc2oc(=O)ccc12` (configuration not stated): the kinact at CYP3A4 is 0.000833 s⁻¹. The same compound had a Ki on Cytochrome P450 3A4 [1] of 310 nM. For the same compound, at Cytochrome P450 3A4 [2], the mechanism based inhibition result is on record as “Cytochrome P450 mechanistic inhibitor: PMID 10859150”.

For the compound `O=C(NCCc1ccc(Br)cc1)C(F)Cl` (configuration not stated), the mechanism based inhibition entry at Cytochrome P450 2B1 [3] is recorded as “Cytochrome P450 mechanistic inhibitor: PMID 1971568”.

As to `O=C(NCCc1ccc([N+](=O)[O-])cc1)C(F)Cl` (configuration not stated), on Cytochrome P450 2B1 [3], the mechanism based inhibition entry is recorded as “Cytochrome P450 mechanistic inhibitor: PMID 1971568”.

For `C#CC(C)(C)C`, the kinact on CYP2B4 is 0.00383 s⁻¹; in [5] it was 0.00333 s⁻¹. Further, the Ki at Cytochrome P450 2B4 [4] worked out at 75000 nM.

`C#Cc1ccc2ccc(=O)oc2c1`: at Cytochrome P450 2B1 [6], the partition_ratio was 25.

In the case of `C#Cc1cc2ccccc2c2ccccc12`, the kinact on CYP1A2 was 0.000667 s⁻¹; on CYP2B1, 0.0075 s⁻¹. The results for the Ki at Cytochrome P450 1A2 and at Cytochrome P450 2B1 [7] were 30 nM and 140 nM, respectively.

Consider `C#CCN(C)C(C)CCCCC.C#CCN[C@@H](C)CCCCC.C#CCN[C@H](C)CCCCC` (configuration not stated), for which the kinact at CYP2B1 was 0.00133 s⁻¹. At Cytochrome P450 2B1 [7], this compound came in with a Ki of 800 nM.

Regarding `C#CC(C)OC(C)(C)C` (configuration not stated), the kinact was 0.0533 s⁻¹ on CYP2B4 and 0.002 s⁻¹ in [5]. This compound returned a Ki on Cytochrome P450 2B4 [4] of 37000 nM. Further, the mechanism based inhibition entry on Cytochrome P450 2B4 [4] (rabbit) was “Cytochrome P450 mechanistic inhibitor: PMID 15751959”. For the same compound, at Cytochrome P450 2B4 [8], the partition_ratio is 12.

In general, kinact refers to the maximal first-order rate at which the target is inactivated.
